Columns and labels:
[1] = tested on: renin mRNA, As4.1-hVDR cells; experiment: Renin mRNA by Northern blot in As4.1-hVDR cells (vitamin D analog screening); assay type: cell-based, mouse; design: Relative inhibitory activity (renin suppressive activity of Gemini analogues): key to the marks not given beside the values; conditions: As4.1-hVDR cells, 24 hours at 10-8, 10^-9 and 10^-10 M; renin mRNA by Northern blot; relative to 1,25-dihydroxyvitamin D3
Description: Vitamin D analogues listed in TABLE 1 were used to treat As4.1-hVDR cells at 10^−10, 10^−9 and 10^−8 M. Renin mRNA was analyzed by Northern blot. 36B4 is a control mRNA and represents a mouse acidic ribosomal phosphoprotein.
FIG. 4 is an histogram of evaluation of Gemini analogues by Northern blot analysis. The 11 Gemini compounds listed in TABLE 2 (indicated) were used to treat As4.1 hVDR cells at 10^−10, 10^−9, and 10^−8 M for 24 hours. Renin mRNA was quantitated by Northern blots. The quantitative data obtained at 10^−10 and 10^−9 M are shown in A and B. The # of each compound corresponds to the number shown in TABLE 2. E, ethanol-treated control, VD, 1,25(OH)2D3.
(§1) RNA isolation and northern blot. The kidney and liver were dissected and immediately placed into the Trizol Reagent (Invitrogen, Grand Island, N.Y.) for total RNA isolation according to the manufacturer's instruction. To determine renin or angiotensinogen mRNA expression, total RNA (20 μg/lane) was separated on a 1.2% agarose gel containing 0.6 M formaldehyde, transferred onto a Nylon membrane (MSI, Westborough, Mass.) and crosslinked in a UV crosslinker (Bio-Rad, Hercules, Calif.). Hybridization was performed as described by Li et al. (2001). Mouse renin and angiotensinogen cDNA probes were labeled with ^32P-dATP (ICN, Costa Mesa, Calif.) using the Prime-a-gene Labeling System (Promega, Madison, Wis.). After hybridization and washing, membranes were exposed to X-ray films at −80° C. for autoradiography. The relative amount of mRNA was quantitated using a Phospholmager (Molecular Dynamics, Sunnyvale, Calif.) and normalized with 36B4 mRNA.
As4.1 cell culture and transfection. As4.1 cells (ATCC, Manassas, Va.) were cultured in DMEM supplemented with 10% FBS at 37° C. and 5% CO2. For transient transfection, the cells were grown in 10-cm dishes to 50% confluence and transfected with pcDNA3.1, pcDNA-hVDR or pcDNA-PTH/PTHrPR plasmid (10 μg DNA/dish) by the standard calcium phosphate method. Twenty-four hr after transfection, the cells were treated for 24 hr with 5×10^−8 M of 1,25(OH)2D3 or ethanol in serum-free media, or with different doses of bovine PTH(1-34) as indicated. Total RNA was isolated and analyzed for renin mRNA expression by northern blot. For stable transfection, As4.1 cells were transfected with pcDNA3.1 or pcDNA-hVDR plasmid by the use of Superfect reagent (Qiagen, Valencia, Calif.) and selected with 350 μg/ml of G418 for two weeks. Individual colonies were picked, expanded and selected for VDR expression. The As4.1-hVDR stable clones were treated with different doses of 1,25(OH)2D3 for 24 hr in serum-free media, and total RNA were analyzed by northern blot to examine renin expression.

[2] = tested on: 4.1 kb renin gene promoter (Ren-1c), As4.1-hVDR cells; experiment: Renin gene promoter luciferase reporter assay in As4.1-hVDR cells; assay type: cell-based, mouse; conditions: pGL-4.1 kb-Luc transfected As4.1-hVDR cells, 10^−8 M
Excerpt: As4.1-hVDR cells were transfected with pGL-4.1 kb-Luc, and treated with ethanol (E), 10^−8 M of 1,25(OH)2D3 (VD3) and different analogues as indicated.
A. Expression of hVDR mRNA in stable As4.1 clones. P, parental As4.1 cells; #57, As4.1 clone 57 stably transfected with pcDNA-hVDR; V, As4.1 clone stably transfected with the empty vector pcDNA3.1. B. Renin mRNA expression in As4.1 clone V (Vector) and #57 treated with ethanol (E) or different doses of 1,25(OH)2D3 as indicated. c. As4.1-hVDR cells (clone #57) were transfected with pGL3-Control, pGL-4.1 kb or pGL-117 bp luciferase reporter plasmid and then treated with ethanol (closed bar) or 10^−8 M of 1,25(OH)2D3 (open bar). Luciferase activity was determined 48 hr after transfection. Similar results were obtained in other stable clones.
Renin gene promoter analysis. Plasmid pR1C-4.1 CAT that contains 4.1 kb 5′-flanking sequence of mouse Ren-1^c gene (Petrovic et al. 1996) was provided by Dr. K. W. Gross (Roswell Park Cancer Institute, Buffalo, N.Y.). To generate pGL-117 bp reporter plasmid, the 123 bp renin minimal promoter fragment (+6 to −117) was released from pR1C-4.1 CAT with XbaI and BamHI and inserted into the HindIII site of pGL3-basic vector (Promega, Madison, Wis.). To generate pGL-4.1 kb reporter plasmid, the BamHI fragment (−4.1 kb to −118 bp) from pRI C-4.1 CAT was inserted into the BglII site of pGL-117 bp. To analyze the activity of renin gene promoter, As4.1-hVDR cells were transfected with the reporter plasmids by electroporation according to Shi et al. (2001) using a Bio-Rad Gene Pulser (Bio-Rad, Hercules, Calif.). pCMV-β-gal plasmid was co-transfected as an internal control. pGL3-control plasmid (Promega) was used as the positive control. The transfected cells were treated with ethanol or 10^−8 M of 1,25(OH)2D3 in Opti-MEM medium (Invitrogen) containing 2% charcoal-treated FBS four hr after electroporation, and luciferase activity was determined at 48 hr after initial transfection, using the Luciferase Assay System (Promega). Luciferase activity was normalized to β-gal activity obtained from the same electroporation, and presented as fold induction based on the basal activity of pGL3-basic empty vector determined in the same experiment.

[3] = Blood ionized calcium and survival of treated mice; assay type: in vivo, mouse
Excerpt: Two-month old wildtype mice were fed the normal diet supplemented with 2.5% strontium chloride for 7 weeks before sacrifice. A. Northern blot analysis of renin mRNA expression in the kidney from non-treated and strontium-treated wildtype mice. Each lane represents an individual animal. B. Quantitative results of the northern analysis. C. Blood ionized calcium concentration determined at the end of the treatment (n=5 in each group). In both b and c, NT, non-treated; STR, strontium-treated, *, P<0.01 vs. NT value.
(A) Blood ionized calcium levels. Normal mice (n=5) were treated with vehicle (control), 1,25(OH)2D3 (VD3) or compound #9 at a daily dose of 1.5 μg/kg body weight for one week. […] (B) Renin mRNA levels in the kidneys of treated mice, as determined by quantitative Northern blots. *, P<0.01.
Measurement of blood and urine parameters. The concentration of blood ionized calcium was determined using a Ciba/Coming 634 Ca^++/pH analyzer (Chiron Diagnostics, East Walpole, Mass.) from 50 μl of whole blood obtained from tail snipping. Blood glucose concentrations were determined by using One Touch Sure Step test strips (Life Scan, Milpitas, Calif.). Serum intact parathyroid hormone (iPTH) was determined using a commercial ELISA kit (Immutopics, San Clemente, Calif.). The concentration of serum and urinary Na^+, K^+, and creatinine was determined by a Beckman Coulter CX5 Autoanalyzer as described by Li et al. (2001).

[4] = tested on: renin mRNA in the kidney; experiment: Renin mRNA in the kidney of treated mice (Northern blot); assay type: in vivo, mouse
Description: A. […] The 2 doses were given in two consecutive days at 9 am. The 5 doses were given in three consecutive days at 9 am and 7 pm for the first two days, and at 9 am on the third day. Total renal RNA was isolated 6 hr after the last injection. Renin, calbindin-D9k (CaBP-D9k) and 36B4 mRNA levels were determined by Northern blot analysis. B. Quantitation of renin mRNA levels.
(A) Blood ionized calcium levels.
As a control for vitamin D action, Calbindin-D9k stimulation was measured. Quantitative data were presented below the Northern blot gels.
Total kidney RNAs were separated on agarose gels (20 μg/lane). Membranes were hybridized sequentially with 32P-labeled renin and 36B4 cDNA probes. The relative amount of renin mRNA was quantitated after being normalized with 36B4 mRNA levels. […] (B) Quantitative results-from Northern blots in (A).
Animals and treatment. […] VDR^−/− and Gcm2^−/− mice were generated through breeding of heterozygous mice and identified by PCR with tail genomic DNA as the template, and the wild-type littermates were used as controls. […] To increase the sodium load, mice were fed the normal rodent diet supplemented with 8% NaCl for 1, 3, 5 and 7 days. […] Wild-type mice were injected (i.p.) with vehicle or 30 pmole of 1,25(OH)2D3 dissolved in propylene glycol. Mice were sacrificed by exsanguination under anesthesia and the blood was collected into ice-cold tubes for serum isolation, or into ice-cold tubes containing 50 μl of EDTA (pH 8.0) and 100 U/ml aprotinin for plasma isolation. The determination of water and food intake, as well as urine collection, were carried out by using metabolic cages.
as §1, with “To determine renin or angiotensinogen mRNA expression, total RNA (20 μg/lane) was separated on a 1.2% agarose gel containing 0.6 M formaldehyde, transferred onto a Nylon membrane (MSI, Westborough, Mass.) and crosslinked in a UV crosslinker (Bio-Rad, Hercules, Calif.). Hybridization was performed as described by Li et al. (2001).” left out

[5] = tested on: renin mRNA, As4.1 cells; experiment: Renin mRNA by northern blot in As4.1 cells with or without transient transfection; assay type: cell-based, mouse; conditions: As4.1 cells, or As4.1 transfected with pcDNA-PTH/PTHrPR; different doses
Excerpt: A. As4.1 cells were transiently transfected with (+) or without (−) pcDNA-hVDR plasmid containing the full-length human VDR cDNA and then. treated with 5×10^−8 M of 1,25(OH)2D3 (+) or ethanol (−) for 24 hrs. Total cellular RNA was isolated and analyzed by northern blot with renin and 36B4 cDNA probes. B. Quantitative results of northern blot analyses obtained from three independent experiments. C, ethanol-treated; VD, 1,25(OH)2D3-treated; T, transfected with pcDNA-hVDR and treated with ethanol; T/VD, transfected with pcDNA-hVDR and treated with 1,25(OH)2D3. *, P<0.001 vs. C, VD or T value. C. Renin mRNA expression in As4.1 cells (left panel), and in As4.1 cells transfected with pcDNA-PTH/PTHrPR containing the rat PTH/PTHrP receptor cDNA (right panel) and treated with bovine PTH (1-34) as indicated. −, untreated.
as §1
As4.1 cell culture and transfection. […] Total RNA was isolated and analyzed for renin mRNA expression by northern blot. […] The As4.1-hVDR stable clones were treated with different doses of 1,25(OH)2D3 for 24 hr in serum-free media, and total RNA were analyzed by northern blot to examine renin expression.

[6] = wildtype mice, normal diet with 2.5% strontium chloride for seven weeks
[7] = normal mice, daily dose 1.5 μg/kg body weight for one week

C=C1C(=CC=C2CCCC3(C)C2CCC3C(CCCC(C)(C)O)CCCC(C)(C)O)CC(O)CC1O (centres unmarked) [#4, 1,25-dihydroxy-21(3-methyl-3-hydroxy-butyl)-cholecalciferol]
Relative inhibitory activity (renin suppressive activity of Gemini analogues) [1]: ++ | Suppression of renin promoter activity (luciferase) [2]: super-potency

[Cl-].[Cl-].[Sr+2] [strontium, strontium chloride]
Blood ionized calcium [3, 6]: hypocalcemic | Renin mRNA expression in the kidney [4, 6]: significant increase

PTH(1-34): bovine PTH(1-34), parathyroid hormone fragment used to treat As4.1 cells (AVSEIQFMHNLGKHLSSMERVEWLRKKLQDVHNF; UniProt P01268 32-65, looked up, fragment)
Renin expression in PTH-treated As4.1 cells [5]: No increase in renin expression

C=C1C(=CC=C2CCCC3(C)C2CCC3C(CCCC(C)(C)O)CCC(O)C(C)(C)O)CC(O)CC1O [#18, 1,25-dihydroxy-21(2R,3-hydroxy-3-methylbutyl)-20S-cholecalciferol]
Relative inhibitory activity (renin suppressive activity of Gemini analogues) [1]: ++

CC(C)(O)CCCC(CCCC(C)(C)O)C1CCC2C(=CC=C3CC(O)CC(O)C3)CCCC21C (centres unmarked) [#9, 1,25-dihydroxy-21(3-methyl-3-hydroxy-butyl)-19-nor-cholecalciferol]
Suppression of renin promoter activity (luciferase) [2]: super-potency | Blood calcium level [3, 7]: minimal increase | Renin mRNA expression in the kidneys [4, 7]: reduced | Reduction in renin mRNA levels in the kidneys ([4]; normal mice, daily dose 5 μg/kg body weight for one week): 54% | Reduction in renin mRNA levels in the kidneys ([4]; normal mice, daily dose 12 μg/kg body weight for one week): 76%

Source: patent US20050113348A1, “Vitamin D and vitamin D analogs or derivatives as new anti-hypertensive agents” (priority 2003, published 2005)
